Laboratory results from patent publication US20100003342A1, “Aqueous solution and method of prolonging life of residual chlorine in aqueous solution” (priority 2006, published 2010).
Like-named read-outs stand apart in the source and are kept apart here.

Type: physicochemical
Conditions: KI method

| SMILES | Residual chlorine concentration (neutral pH environment) | Residual chlorine concentration (perchloric acid aqueous solution) |
| --- | --- | --- |
| [Na+].[O-][Cl+][O-] [NaClO2] | several |  |
| [O-][Cl+3]([O-])([O-])O [perchloric acid] |  | zero |
